O=P(O)(O)c1ccccc1
solubility (mole fraction)
Details | 288.15 K | 293.15 K | 298.15 K | 303.15 K | 308.15 K | 313.15 K | 318.15 K
in acetone | 0.136 | 0.155 | 0.174 | 0.197 | 0.22 | 0.245 | 0.277
in acetonitrile | 0.0136 | 0.0166 | 0.0194 | 0.0228 | 0.0275 | 0.0317 | 0.0365
in chloroform | 0.00104 | 0.00134 | 0.00164 | 0.00211 | 0.00257 | 0.0032 | 0.00393
in ethyl acetate | 0.00523 | 0.00634 | 0.00755 | 0.00896 | 0.0106 | 0.0127 | 0.0155
in n-propanol | 0.305 | 0.336 | 0.358 | 0.388 | 0.417 | 0.445 | 0.47

— BigSolDB 2.1
